Biological target: T1, Muscarinic acetylcholine receptor M4 (Rattus norvegicus, UniProt P08485)
T1 sequence (P08485 whole entry): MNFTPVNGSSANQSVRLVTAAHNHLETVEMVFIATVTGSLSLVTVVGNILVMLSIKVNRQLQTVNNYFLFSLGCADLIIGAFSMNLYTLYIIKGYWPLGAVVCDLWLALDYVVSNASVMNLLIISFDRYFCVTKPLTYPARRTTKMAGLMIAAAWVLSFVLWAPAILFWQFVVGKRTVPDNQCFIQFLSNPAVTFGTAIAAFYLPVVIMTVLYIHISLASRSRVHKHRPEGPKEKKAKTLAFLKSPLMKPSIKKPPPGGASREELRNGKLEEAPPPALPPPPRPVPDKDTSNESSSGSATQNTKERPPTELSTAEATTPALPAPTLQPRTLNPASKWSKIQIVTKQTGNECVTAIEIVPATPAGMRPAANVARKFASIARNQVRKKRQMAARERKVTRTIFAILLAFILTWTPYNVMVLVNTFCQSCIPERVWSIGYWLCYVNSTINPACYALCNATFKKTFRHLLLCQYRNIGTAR
Experiment: rat M4 radioligand competition binding – biochemical, NMS competition, mechanism study for M4 PAM project, late-stage follow-up (AID 1939)

SMILES: Cc1cc(C)c2c(N)c(C(=O)NCc3ccc4c(c3)OCO4)sc2n1 [3-amino-4,6-dimethyl-N-piperonyl-thieno[2,3-b]pyridine-2-carboxamide]
- EC50: < 1420 nM

Source: BindingDB's records for doi:10.7270/Q2SN07C4 (Vanderbilt Screening Center for GPCRs, Ion Channels and …, 2009)
